From patent US10851067B2, “Kv7 channel activators compositions and methods of use” (Knopp Biosciences LLC, priority 2018, dated 2020) come the findings set out here.

The structures appear in SMILES notation.

In this assay the target is Kv7.2/7.3 (Homo sapiens, UniProt O43525+O43526). Kind of assay: Kv7.2/7.3 Thallium Flux Assay. The assay is classed as cell-based. Further details: host or cells: HEK cells, tetracycline-inducible expression. Conditions: read-out: Kv7.2/7.3 Activity: EC50 of Kv7.2/Kv7.3 activation. An excerpt: The Thallium Flux Assay is used as a surrogate indicator of potassium channel activity.
The experimental protocol was adapted from the FluxOR™ II Green Potassium Ion Channel Assay User Guide (Pub. No. MAN0016084, Invitrogen). Conditions were optimized for the Kv7.2/7.3 cell line.
The hKV7.2/7.3 cell line was obtained from Chantest (Cleveland, Ohio 44128) cat. #CT6147.
Kv7.2/7.3 cells were maintained in a media containing DMEM/F12; 50/50 (GIBCO cat. #11330), 10% Fetal Bovine Serum (FBS) (GIBCO cat. #26140), 100 units/mL Penicillin-Streptomycin (GIBCO cat. #15140), 0.005 mg/ml Blasticidin (SIGMA 15205), 0.5 mg/mL Geneticin (GIBCO cat. #10131), and 0.1 mg/mL Zeocin (GIBCO cat. #R25001). One day prior to experimentation, cells were plated in 96 well clear bottom plates (Corning cat. #353219) in a media without Blasticidin, Geneticin, or Zeocin. Channel expression was induced by adding tetracycline (Bioline cat. #BIO87030) at a final concentration of 10 ng/mL.
The test compound is diluted in a mixture of 0.1% DMSO/extracellular solution with an eight-point concentration range from 0.014 μM to 30 μM. Serial dilutions were made on a Biomek NXP (BECKMAN COULTER).
Measurement and Data Analysis:
A plate reader (Enspire, Perkin Elmer) is used to characterize the ion-channel modulating properties of novel compounds using an excitation wavelength of 475 nm and an emission wavelength of 530 nm. After a 15 sec baseline measurement, the stimulus buffer containing thallium and potassium is injected. A final endpoint measure is taken after 90 sec. Responses are normalized to positive control (retigabine, 30 µM max). Mean normalized responses at each concentration tested are fit to the standard Hill equation to generate an EC50 and maximal response.
For the molecule `CC(C(=O)Nc1nc2c(F)cc(C#N)c(F)c2n1C1(C)CCC1)C1(C(F)(F)F)CC1` (single isomer, unassigned) [Example 544, N-(6-cyano-4,7-difluoro-1-(1-methylcyclobutyl)-1H-benzo[d]imidazol-2-yl)-2-(1-(trifluoromethyl)cyclopropyl)propanamide], the EC50 is under 1 µM.
On to `CC(C)(CC(=O)Nc1nc2cc(F)c(F)cc2n1C1(C)CCC1)C(F)F` [Example 533, N-(5,6-difluoro-1-(1-methylcyclobutyl)-1H-benzo[d]imidazol-2-yl)-4,4-difluoro-3,3-dimethylbutanamide], for which the EC50 is under 1 µM.
`CC(C)(O)c1cc(F)c2nc(NC(=O)CC3CC(F)(F)C3(F)F)n(C3(C)CCC3)c2c1` (single isomer, unassigned) [Example 519, N-(4-fluoro-6-(2-hydroxypropan-2-yl)-1-(1-methylcyclobutyl)-1H-benzo[d]imidazol-2-yl)-2-(2,2,3,3-tetrafluorocyclobutyl)acetamide]: the EC50 was under 1 µM.
Turning to `CC(C(=O)Nc1nc2c(F)cc(C(C)(C)O)cc2n1C1CCC1)C1(C(F)(F)F)CC1` (single isomer, unassigned) [Example 497, N-(1-cyclobutyl-4-fluoro-6-(2-hydroxypropan-2-yl)-1H-benzo[d]imidazol-2-yl)-2-(1-(trifluoromethyl)cyclopropyl)propanamide], the EC50 was under 1 µM.
Consider `CC1(n2c(NC(=O)CC3CC(F)(F)C3(F)F)nc3cc(F)cc(C#N)c32)CCC1` (single isomer, unassigned) [Example 546, N-(7-cyano-5-fluoro-1-(1-methylcyclobutyl)-1H-benzo[d]imidazol-2-yl)-2-(2,2,3,3-tetrafluorocyclobutyl)acetamide], for which the EC50 was under 1 µM.
Under `C=Cc1c(F)ccc2nc(NC(=O)CC(C)(C)C)n(C3CCC3)c12` [Example 552, N-(1-cyclobutyl-6-fluoro-7-vinyl-1H-benzo[d]imidazol-2-yl)-3,3-dimethylbutanamide] stands under 1 µM; under `COc1cc(C#N)cc2c1nc(NC(=O)CC1CC(F)(F)C1(F)F)n2C(C)(C)C` (single isomer, unassigned) [Example 506, N-(1-(tert-butyl)-6-cyano-4-methoxy-1H-benzo[d]imidazol-2-yl)-2-(2,2,3,3-tetrafluorocyclobutyl)acetamide], under 1 µM; under `CC(C)(C)CC(=O)Nc1nc2ccc(C3(O)CCC3)c(C(F)(F)F)c2n1C1CCC1` [Example 490, N-(1-cyclobutyl-6-(1-hydroxycyclobutyl)-7-(trifluoromethyl)-1H-benzo[d]imidazol-2-yl)-3,3-dimethylbutanamide], under 1 µM.
Under `CC(C)(O)c1ccc2nc(NC(=O)CC34CC(C3)C4)n(C3(C)CCC3)c2c1` [Example 511, 2-(bicyclo[1.1,1]pentan-1-yl)-N-(6-(2-hydroxypropan-2-yl)-1-(1-methylcyclobutyl)-1H-benzo[d]imidazol-2-yl)acetamide] stands under 1 µM; under `CC(C)(C)CC(=O)Nc1nc2ccc(C#N)c(OC(F)(F)F)c2n1C1CCC1` [Example 498, N-(6-cyano-1-cyclobutyl-7-(trifluoromethoxy)-1H-benzo[d]imidazol-2-yl)-3,3-dimethylbutanamide], under 1 µM; under `CC1(n2c(NC(=O)CC3(C(F)(F)F)CC3)nc3c(F)cc(C#N)cc32)CCC1` [Example 561, N-(6-cyano-4-fluoro-1-(1-methylcyclobutyl)-1H-benzo[d]imidazol-2-yl)-2-(1-(trifluoromethyl)cyclopropyl)acetamide], under 1 µM.
`N#Cc1ccc2nc(NC(=O)CC3CC(F)(F)C3(F)F)n(-c3ccc(F)cc3)c2c1` (single isomer, unassigned) [Example 551, N-(6-cyano-1-(4-fluorophenyl)-1H-benzo[d]imidazol-2-yl)-2-(2,2,3,3-tetrafluorocyclobutyl)acetamide]: the EC50 is under 1 µM.
Under `CC(C(=O)Nc1nc2ccc(C(C)(C)O)cc2n1C1(C)CCC1)C(C)(C)C(F)(F)F` (single isomer, unassigned) [Example 492, 4,4,4-trifluoro-N-(6-(2-hydroxypropan-2-yl)-1-(1-methylcyclobutyl)-1H-benzo[d]imidazol-2-yl)-2,3,3-trimethylbutanamide] stands under 1 µM; under `CC(C)(CC(=O)Nc1nc2cc(F)ccc2n1C1(C)CCC1)C(F)F` [Example 524, 4,4-difluoro-N-(5-fluoro-1-(1-methylcyclobutyl)-1H-benzo[d]imidazol-2-yl)-3,3-dimethylbutanamide], under 1 µM; under `CC(C(=O)Nc1nc2c(F)cc(C#N)c(F)c2n1C1(C)CCC1)C1(C(F)(F)F)CC1` (single isomer, unassigned) [Example 543, N-(6-cyano-4,7-difluoro-1-(1-methylcyclobutyl)-1H-benzo[d]imidazol-2-yl)-2-(1-(trifluoromethyl)cyclopropyl)propanamide], under 1 µM.
For `COc1cc(C#N)cc2c1nc(NC(=O)CC(C)(C)C(F)(F)F)n2C1(C)CCC1` [Example 554], the EC50 is under 1 µM.
As for `CC(C)(O)c1cc(F)c2nc(NC(=O)C3(CC(F)F)CC3)n(C3CCC3)c2c1` [Example 502, N-(1-cyclobutyl-4-fluoro-6-(2-hydroxypropan-2-yl)-1H-benzo[d]imidazol-2-yl)-1-(2,2-difluoroethyl)cyclopropane-1-carboxamide], the EC50 lay in the range of 3 to 10 µM.
Turning to `CC(C)(O)c1cc(F)c2nc(NC(=O)CC3CC(F)(F)C3(F)F)n(C3(C)CCC3)c2c1` (single isomer, unassigned) [Example 500, N-(4-fluoro-6-(2-hydroxypropan-2-yl)-1-(1-methylcyclobutyl)-1H-benzo[d]imidazol-2-yl)-2-(2,2,3,3-tetrafluorocyclobutyl)acetamide], the EC50 was under 1 µM.
For `COc1cc(C#N)cc2c1nc(NC(=O)CC1(C(F)(F)F)CC1)n2C(C)(C)C` [Example 520, N-(1-(tert-butyl)-6-cyano-4-methoxy-1H-benzo[d]imidazol-2-yl)-2-(1-(trifluoromethyl)cyclopropyl)acetamide], the EC50 lay in the range of 3 to 10 µM.
Take `CC(C)(C)n1c(NC(=O)CC2CC(F)(F)C2(F)F)nc2c(F)cc(C#N)c(F)c21` (single isomer, unassigned) [Example 496, N-(1-(tert-butyl)-6-cyano-4,7-difluoro-1H-benzo[d]imidazol-2-yl)-2-(2,2,3,3-tetrafluorocyclobutyl)acetamide]: the EC50 is under 1 µM.
Regarding `CC(C(=O)Nc1nc2cc(F)c(F)cc2n1C1(C)CCC1)C1(C(F)(F)F)CC1` (single isomer, unassigned) [Example 540, N-(5,6-difluoro-1-(1-methylcyclobutyl)-1H-benzo[d]imidazol-2-yl)-2-(1-(trifluoromethyl)cyclopropyl)propanamide], the EC50 is under 1 µM.
For the molecule `CC1(n2c(NC(=O)CC3CC(F)(F)C3(F)F)nc3cc(F)c(F)c(F)c32)CCC1` (single isomer, unassigned) [Example 559, 2-(2,2,3,3-tetrafluorocyclobutyl)-N-(5,6,7-trifluoro-1-(1-methylcyclobutyl)-1H-benzo[d]imidazol-2-yl)acetamide], the EC50 is under 1 µM.
For `CC1(n2c(NC(=O)CC3(C(F)(F)F)CC3)nc3cc(F)c(F)cc32)CCC1` [Example 538, N-(5,6-difluoro-1-(1-methylcyclobutyl)-1H-benzo[d]imidazol-2-yl)-2-(1-(trifluoromethyl)cyclopropyl)acetamide], the EC50 was under 1 µM.
Regarding `CC(C)(C)n1c(NC(=O)CC(C)(C)C(F)(F)F)nc2cc(F)cc(F)c21` [Example 530, N-(1-(tert-butyl)-5,7-difluoro-1H-benzo[d]imidazol-2-yl)-4,4,4-trifluoro-3,3-dimethylbutanamide], the EC50 was under 1 µM.
Regarding `CC1(n2c(NC(=O)CC3CC(F)(F)C3(F)F)nc3ccc(F)c(Br)c32)CCC1` (single isomer, unassigned) [Example 549, N-(7-bromo-6-fluoro-1-(1-methylcyclobutyl)-1H-benzo[d]imidazol-2-yl)-2-(2,2,3,3-tetrafluorocyclobutyl)acetamide], the EC50 was under 1 µM.
Regarding `CC(C(=O)Nc1nc2c(F)cc(C#N)cc2n1C1(C)CCC1)C1(C(F)(F)F)CC1` (single isomer, unassigned) [Example 503, N-(6-cyano-4-fluoro-1-(1-methylcyclobutyl)-1H-benzo[d]imidazol-2-yl)-2-(1-(trifluoromethyl)cyclopropyl)propanamide], the EC50 is under 1 µM.
On to `CC(C)(C)CC(=O)Nc1nc2c(F)cc(C#N)cc2n1C1(C)CCC1` [Example 495, N-(6-cyano-4-fluoro-1-(1-methylcyclobutyl)-1H-benzo[d]imidazol-2-yl)-3,3-dimethylbutanamide], for which the EC50 is under 1 µM.
